# Data reported in the supplement of paper PMC10307832.
# Tests used:
# Assay in all cases: relative viability (nuclei count vs DMSO), 5 days (fraction); higher = more cells survive
# [1] = tested on: NCI-H1437
# Summary of the method: (§1)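 Cells from lung cancer lines were seeded into 1536-well plates and, one day later, dosed by pin tool. Treatments were either a single drug or a fixed dose of an anchor drug with five library-drug doses (not always all listed) in √10 steps. After 5 days, nuclei were stained in a one-step fixation (final 0.05% Triton X-100, 1% formaldehyde, 1 ug/ml Hoechst) and counted on 4× images, and relative viability is the treated-to-vehicle nuclei ratio, as the median of duplicate plates.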
# [2] = tested on: SK-MES-1
# Summary of the method: as §1
# [3] = tested on: LXF-289
# Summary of the method: as §1
# [4] = tested on: NCI-H1355
# Summary of the method: as §1
# [5] = tested on: HCC-827
# Summary of the method: as §1
# [6] = tested on: RERF-LC-KJ
# Summary of the method: as §1
# [7] = tested on: NCI-H647
# Summary of the method: as §1
# [8] = tested on: NCI-H661
# Summary of the method: as §1
# [9] = tested on: NCI-H2126
# Summary of the method: as §1
# [10] = tested on: PC-14
# Summary of the method: as §1
# [11] = tested on: NCI-H1993
# Summary of the method: as §1
# [12] = tested on: EKVX
# Summary of the method: as §1
# [13] = tested on: BEN
# Summary of the method: as §1
# [14] = tested on: NCI-H727
# Summary of the method: as §1
# [15] = tested on: NCI-H2170
# Summary of the method: as §1
# [16] = tested on: LK-2
# Summary of the method: as §1
# [17] = tested on: NCI-H1944
# Summary of the method: as §1
# [18] = tested on: NCI-H1666
# Summary of the method: as §1
# [19] = tested on: LOU-NH91
# Summary of the method: as §1
# [20] = tested on: LCLC-103H
# Summary of the method: as §1
# [21] = tested on: ChaGo-K-1
# Summary of the method: as §1
# [22] = tested on: HOP-62
# Summary of the method: as §1
# [23] = tested on: NCI-H441
# Summary of the method: as §1
compound,measurement,setting,value
CN1CCN(CCOc2cc(OC3CCOCC3)c3c(Nc4c(Cl)ccc5c4OCO5)ncnc3c2)CC1 [Saracatinib] + CS(=O)(=O)N1CCN(Cc2cc3nc(-c4cccc5[nH]ncc45)nc(N4CCOCC4)c3s2)CC1 [Pictilisib] (partner 1 µM),relative viability,[1]; first compound 0.02 µM,0.416
same,relative viability,[1]; first compound 0.2 µM,0.418
same,relative viability,[1]; first compound 0.6325 µM,0.454
same,relative viability,[1]; first compound 2 µM,0.393
same,relative viability,[2]; first compound 0.02 µM,0.375
same,relative viability,[2]; first compound 0.2 µM,0.256
same,relative viability,[2]; first compound 0.6325 µM,0.267
same,relative viability,[2]; first compound 2 µM,0.183
same,relative viability,[3]; first compound 0.02 µM,0.715
same,relative viability,[3]; first compound 0.2 µM,0.731
same,relative viability,[3]; first compound 0.6325 µM,0.8
same,relative viability,[3]; first compound 2 µM,0.472
same,relative viability,[4]; first compound 0.02 µM,0.497
same,relative viability,[4]; first compound 0.2 µM,0.467
same,relative viability,[4]; first compound 0.6325 µM,0.516
same,relative viability,[4]; first compound 2 µM,0.461
same,relative viability,[5]; first compound 0.02 µM,1.1
same,relative viability,[5]; first compound 0.2 µM,0.499
same,relative viability,[5]; first compound 0.6325 µM,0.501
same,relative viability,[5]; first compound 2 µM,0.323
same,relative viability,[6]; first compound 0.02 µM,0.503
same,relative viability,[6]; first compound 0.2 µM,0.521
same,relative viability,[6]; first compound 0.6325 µM,0.604
same,relative viability,[6]; first compound 2 µM,0.362
same,relative viability,[7]; first compound 0.02 µM,0.386
same,relative viability,[7]; first compound 0.2 µM,0.387
same,relative viability,[7]; first compound 0.6325 µM,0.425
same,relative viability,[7]; first compound 2 µM,0.216
same,relative viability,[8]; first compound 0.02 µM,0.452
same,relative viability,[8]; first compound 0.2 µM,0.271
same,relative viability,[8]; first compound 0.6325 µM,0.314
same,relative viability,[8]; first compound 2 µM,0.241
same,relative viability,[9]; first compound 0.02 µM,0.475
same,relative viability,[9]; first compound 0.2 µM,0.498
same,relative viability,[9]; first compound 0.6325 µM,0.529
same,relative viability,[9]; first compound 2 µM,0.429
same,relative viability,[10]; first compound 0.02 µM,0.593
same,relative viability,[10]; first compound 0.2 µM,0.337
same,relative viability,[10]; first compound 0.6325 µM,0.0893
same,relative viability,[10]; first compound 2 µM,0.0627
same,relative viability,[11]; first compound 0.02 µM,0.655
same,relative viability,[11]; first compound 0.2 µM,0.969
same,relative viability,[11]; first compound 2 µM,0.652
same,relative viability,[12]; first compound 0.02 µM,0.417
same,relative viability,[12]; first compound 0.2 µM,0.409
same,relative viability,[12]; first compound 0.6325 µM,0.366
same,relative viability,[12]; first compound 2 µM,0.175
same,relative viability,[13]; first compound 0.02 µM,0.57
same,relative viability,[13]; first compound 0.2 µM,0.56
same,relative viability,[13]; first compound 0.6325 µM,0.573
same,relative viability,[13]; first compound 2 µM,0.427
same,relative viability,[14]; first compound 0.02 µM,0.295
same,relative viability,[14]; first compound 0.2 µM,0.423
same,relative viability,[14]; first compound 0.6325 µM,0.354
same,relative viability,[14]; first compound 2 µM,0.407
same,relative viability,[15]; first compound 0.02 µM,0.355
same,relative viability,[15]; first compound 0.2 µM,0.233
same,relative viability,[15]; first compound 0.6325 µM,0.234
same,relative viability,[15]; first compound 2 µM,0.208
same,relative viability,[16]; first compound 0.02 µM,0.563
same,relative viability,[16]; first compound 0.2 µM,0.316
same,relative viability,[16]; first compound 0.6325 µM,0.413
same,relative viability,[16]; first compound 2 µM,0.302
same,relative viability,[17]; first compound 0.02 µM,0.335
same,relative viability,[17]; first compound 0.6325 µM,0.288
same,relative viability,[17]; first compound 2 µM,0.278
same,relative viability,[18]; first compound 0.02 µM,0.493
same,relative viability,[18]; first compound 0.2 µM,0.413
same,relative viability,[18]; first compound 0.6325 µM,0.563
same,relative viability,[18]; first compound 2 µM,0.469
same,relative viability,[19]; first compound 0.02 µM,0.535
same,relative viability,[19]; first compound 0.2 µM,0.442
same,relative viability,[19]; first compound 0.6325 µM,0.502
same,relative viability,[19]; first compound 2 µM,0.437
same,relative viability,[20]; first compound 0.02 µM,0.547
same,relative viability,[20]; first compound 0.2 µM,0.671
same,relative viability,[20]; first compound 0.6325 µM,0.649
same,relative viability,[20]; first compound 2 µM,0.455
same,relative viability,[21]; first compound 0.02 µM,0.784
same,relative viability,[21]; first compound 0.2 µM,0.521
same,relative viability,[21]; first compound 0.6325 µM,0.903
same,relative viability,[21]; first compound 2 µM,0.379
same,relative viability,[22]; first compound 0.02 µM,0.548
same,relative viability,[22]; first compound 0.2 µM,0.685
same,relative viability,[22]; first compound 0.6325 µM,1.05
same,relative viability,[22]; first compound 2 µM,0.605
same,relative viability,[23]; first compound 0.02 µM,0.461
same,relative viability,[23]; first compound 0.2 µM,0.406
same,relative viability,[23]; first compound 0.6325 µM,0.501
same,relative viability,[23]; first compound 2 µM,0.329
CN1CCN(CCOc2cc(OC3CCOCC3)c3c(Nc4c(Cl)ccc5c4OCO5)ncnc3c2)CC1 [Saracatinib] + C[C@@H](Oc1cc(-c2cnn(C3CCNCC3)c2)cnc1N)c1c(Cl)ccc(F)c1Cl [Crizotinib] (partner 1 µM),relative viability,[1]; first compound 0.02 µM,0.912
same,relative viability,[1]; first compound 0.2 µM,0.866
same,relative viability,[1]; first compound 0.6325 µM,0.865
same,relative viability,[1]; first compound 2 µM,0.943
same,relative viability,[2]; first compound 0.02 µM,1.05
same,relative viability,[2]; first compound 0.2 µM,0.858
same,relative viability,[2]; first compound 0.6325 µM,0.825
same,relative viability,[2]; first compound 2 µM,0.517
same,relative viability,[3]; first compound 0.02 µM,0.845
same,relative viability,[3]; first compound 0.2 µM,0.775
same,relative viability,[3]; first compound 0.6325 µM,0.847
same,relative viability,[3]; first compound 2 µM,0.892
same,relative viability,[4]; first compound 0.02 µM,1.06
same,relative viability,[4]; first compound 0.2 µM,1.13
same,relative viability,[4]; first compound 0.6325 µM,1.08
same,relative viability,[4]; first compound 2 µM,0.925
same,relative viability,[5]; first compound 0.02 µM,0.943
same,relative viability,[5]; first compound 0.2 µM,0.452
same,relative viability,[5]; first compound 0.6325 µM,0.247
same,relative viability,[5]; first compound 2 µM,0.193
same,relative viability,[6]; first compound 0.02 µM,0.81
same,relative viability,[6]; first compound 0.2 µM,0.833
same,relative viability,[6]; first compound 0.6325 µM,0.945
same,relative viability,[6]; first compound 2 µM,0.778
same,relative viability,[7]; first compound 0.02 µM,1.11
same,relative viability,[7]; first compound 0.2 µM,0.707
same,relative viability,[7]; first compound 0.6325 µM,0.704
same,relative viability,[7]; first compound 2 µM,0.411
same,relative viability,[8]; first compound 0.02 µM,1.08
same,relative viability,[8]; first compound 0.6325 µM,1.03
same,relative viability,[8]; first compound 2 µM,0.864
same,relative viability,[9]; first compound 0.02 µM,0.991
same,relative viability,[9]; first compound 0.2 µM,0.84
same,relative viability,[9]; first compound 0.6325 µM,1.02
same,relative viability,[9]; first compound 2 µM,0.894
same,relative viability,[10]; first compound 0.02 µM,0.993
same,relative viability,[10]; first compound 0.2 µM,0.555
same,relative viability,[10]; first compound 0.6325 µM,0.424
same,relative viability,[10]; first compound 2 µM,0.167
same,relative viability,[11]; first compound 0.02 µM,0.832
same,relative viability,[11]; first compound 0.2 µM,0.594
same,relative viability,[11]; first compound 2 µM,0.589
same,relative viability,[12]; first compound 0.02 µM,0.927
same,relative viability,[12]; first compound 0.2 µM,0.865
same,relative viability,[12]; first compound 0.6325 µM,0.596
same,relative viability,[12]; first compound 2 µM,0.302
same,relative viability,[13]; first compound 0.02 µM,0.77
same,relative viability,[13]; first compound 0.2 µM,0.738
same,relative viability,[13]; first compound 0.6325 µM,0.911
same,relative viability,[13]; first compound 2 µM,0.569
same,relative viability,[14]; first compound 0.02 µM,0.904
same,relative viability,[14]; first compound 0.2 µM,0.452
same,relative viability,[14]; first compound 0.6325 µM,0.617
same,relative viability,[14]; first compound 2 µM,0.378
same,relative viability,[15]; first compound 0.02 µM,1.13
same,relative viability,[15]; first compound 0.2 µM,1.24
same,relative viability,[15]; first compound 0.6325 µM,1.13
same,relative viability,[15]; first compound 2 µM,0.649
same,relative viability,[16]; first compound 0.02 µM,0.253
same,relative viability,[16]; first compound 0.2 µM,0.225
same,relative viability,[16]; first compound 0.6325 µM,0.196
same,relative viability,[16]; first compound 2 µM,0.201
same,relative viability,[17]; first compound 0.02 µM,1.11
same,relative viability,[17]; first compound 0.6325 µM,1.09
same,relative viability,[17]; first compound 2 µM,0.67
same,relative viability,[18]; first compound 0.02 µM,1.04
same,relative viability,[18]; first compound 0.2 µM,0.965
same,relative viability,[18]; first compound 0.6325 µM,1.18
same,relative viability,[18]; first compound 2 µM,0.926
same,relative viability,[19]; first compound 0.02 µM,0.692
same,relative viability,[19]; first compound 0.2 µM,0.57
same,relative viability,[19]; first compound 0.6325 µM,0.542
same,relative viability,[19]; first compound 2 µM,0.458
same,relative viability,[20]; first compound 0.02 µM,1.11
same,relative viability,[20]; first compound 0.2 µM,0.817
same,relative viability,[20]; first compound 0.6325 µM,1.13
same,relative viability,[20]; first compound 2 µM,0.976
same,relative viability,[21]; first compound 0.02 µM,1.08
same,relative viability,[21]; first compound 0.2 µM,0.906
same,relative viability,[21]; first compound 0.6325 µM,1.1
same,relative viability,[21]; first compound 2 µM,0.809
same,relative viability,[22]; first compound 0.02 µM,0.772
same,relative viability,[22]; first compound 0.2 µM,0.928
same,relative viability,[22]; first compound 0.6325 µM,0.841
same,relative viability,[22]; first compound 2 µM,1.02
same,relative viability,[23]; first compound 0.02 µM,0.95
same,relative viability,[23]; first compound 0.2 µM,0.601
same,relative viability,[23]; first compound 0.6325 µM,0.798
same,relative viability,[23]; first compound 2 µM,0.646
